Data set [1] has as its target T1, dopamine D4 receptors in cloned human dopamine receptor subtype 4.2 membranes (Homo sapiens, UniProt P21917, DEL271-302).
T1 sequence (P21917 with tags, fused parts or gaps DEL271-302): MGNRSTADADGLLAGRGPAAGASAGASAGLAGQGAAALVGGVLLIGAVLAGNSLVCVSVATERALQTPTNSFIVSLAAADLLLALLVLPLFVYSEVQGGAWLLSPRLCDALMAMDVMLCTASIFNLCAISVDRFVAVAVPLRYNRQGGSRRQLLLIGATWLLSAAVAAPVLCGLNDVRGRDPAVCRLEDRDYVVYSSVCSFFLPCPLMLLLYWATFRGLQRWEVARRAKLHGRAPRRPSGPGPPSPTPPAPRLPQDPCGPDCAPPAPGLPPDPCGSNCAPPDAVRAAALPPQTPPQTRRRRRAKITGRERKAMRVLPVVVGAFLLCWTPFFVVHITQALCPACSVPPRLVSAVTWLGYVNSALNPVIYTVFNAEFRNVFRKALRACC
Nature of the data set: 3H-YM-09151-2 binding (affinity for dopamine D4 receptors). The note with it: 3H-YM-09151-2, cloned human D4.2 membranes; for pIC50: * means that the test result is preliminary, read-out: D4-bind. IC50. The protocol:
By this method the inhibition by drugs of the binding of the dopamine D4 antagonist ^3H-YM-09151-2 to dopamine D4 receptors in cloned human dopamine receptor subtype 4.2 membranes is determined in vitro. Accordingly, this is a test for affinity for dopamine D4 receptors. The test is performed using a preparation of cloned dopamine D4 cell membranes CRM-016®, Dupharma A/S, Denmark, in accordance with the product specifications.

SMILES strings stand for the structures. pIC50: −log10 of the molar value. Where a name gives a salt, the structure may show the parent alone.

`COc1cc2c(cc1OC)CC(CN1CCC(c3c[nH]c4cc(Cl)ccc34)CC1)C2`: the melting point (as a rule, the temperature of the solid-liquid transition) lay within 68 to 79 °C. Still for that read-out and setting: next, `CC(=O)Nc1ccc2c(c1)CC(CN1CCC(c3c[nH]c4cc(Cl)ccc34)CC1)C2` (stereo not drawn): 151 to 152 °C; `CC(=O)Nc1ccc2c(c1)CCC2CN1CC=C(c2c[nH]c3cc(Cl)ccc23)CC1` (stereo not drawn) (as salt: fumarate) [Compound 6d, 6-Chloro-3-[1-(5-acetylamino-1-indanylmethyl)-1,2,3,6-tetrahydropyridin-4-yl]-1H-indole]: 241 to 242 °C; `c1ccc2c(c1)CC(CN1CCN(c3ccc4[nH]ccc4c3)CC1)C2` (as salt: hydrochloride) [Compound 11f, 5-[4-(Indan-2-yl)methylpiperazin-1-yl]-1H-indole]: 263 to 265 °C. On the same count and under the same terms, next, `c1ccc2c(c1)CC(CCN1CCN(c3ccc4[nH]ccc4c3)CC1)C2` (as salt: hydrochloride) [Compound 25b, 5-[4-[2-(Indan-2-yl)ethyl]piperazin-1-yl]-1H-indole]: 251 to 253 °C; `CC(C)Oc1cccc2c1CC(CN1CCC(c3c[nH]c4cc(Cl)ccc34)CC1)C2` (stereo not drawn) (as salt: oxalate): 119 to 126 °C; `CC(C)Oc1cccc2c1CC(CN1CCC(c3c[nH]c4ccc(F)cc34)CC1)C2` (stereo not drawn) (as salt: oxalate): 181 to 189 °C. On to `CC(=O)Nc1ccc2c(c1)CC(CN1CC=C(c3c[nH]c4cc(Cl)ccc34)CC1)C2` (stereo not drawn) (as salt: oxalate), for which the melting point was 201 to 203 °C. The same measure, in the same setting: next, `Clc1ccc2c(C3CCN(CCCCC4CCc5ccccc54)CC3)c[nH]c2c1` (stereo not drawn) (as salt: oxalate) [Compound 8f, 6-Chloro-3-[1-[4-(indan-1-yl)butan-1-yl)-piperidin-4-yl]-1H-indole]: 206 to 208 °C; `Clc1ccc2c(C3=CCN(CCCCC4CCc5ccccc54)CC3)c[nH]c2c1` (stereo not drawn) (as salt: oxalate) [Compound 8h]: 191 to 192 °C. Take `Clc1cccc2c(C3=CCN(CC4Cc5ccccc5C4)CC3)c[nH]c12` (as salt: oxalate) [Compound 11c, 7-Chloro-3-[1-(indan-2-yl)methyl-1,2,3,6-tetrahydropyridin-4-yl]-1H-indole]: the melting point is 135 to 136 °C. Compound `CC(=O)Nc1ccc2c(c1)C(CCN1CC=C(c3c[nH]c4cc(Cl)ccc34)CC1)CC2` (stereo not drawn) (as salt: oxalate) [Compound 18c] came in with a melting point of 153 to 155 °C. Still for that read-out and setting: next, `CC(=O)Nc1ccc2c(c1)C(CCCN1CC=C(c3c[nH]c4cc(Cl)ccc34)CC1)CC2` (stereo not drawn) (as salt: oxalate) [Compound 18d, 6-Chloro-3-[1-[3-(6-acetylaminoindan-1-yl)propan-1-yl]-1,2,3,6-tetrahydropyridin-4-yl]-1H-indole]: 110 to 115 °C. `CC(=O)Nc1ccc2c(c1)C(CCCCN1CC=C(c3c[nH]c4cc(Cl)ccc34)CC1)CC2` (stereo not drawn) (as salt: oxalate) [Compound 18e, 6-Chloro-3-[1-[4-(6-acetylaminoindan-1-yl)butan-1-yl]-1,2,3,6-tetrahydropyridin-4-yl]-1H-indole] gave a melting point of 125 to 128 °C. The same measure, in the same setting: next, `CC(=O)N1CC(CCCN2CC=C(c3c[nH]c4cc(Cl)ccc34)CC2)c2ccccc21` (stereo not drawn) (as salt: oxalate) [Compound 20k, 3-[1-[3-(1-Acetyl-2,3-dihydro-1H-indol-3-yl)propyl]-1,2,3,6-tetrahydropyridin-4-yl]-6-chloro-1H-indole]: 112 to 115 °C; `Clc1cccc2c(C3CCN(CC4Cc5ccccc5C4)CC3)c[nH]c12` (as salt: oxalate) [Compound 21c, 7-Chloro-3-[1-(indan-2-ylmethyl)piperidin-4-yl]-1H-indole]: 218 to 219 °C. `C1=C(n2ccc3ccccc32)CCN(CCC2Cc3ccccc3C2)C1` (as salt: oxalate) [Compound 28b, 1-[1-[2-(Indan-2-yl)ethyl]-1,2,3,6-tetrahydropyridin-4-yl]-1H-indole]: the melting point lay in the range of 176 to 178 °C.

`CC(=O)N1CC(CCN2CC=C(c3c[nH]c4cc(Cl)ccc34)CC2)c2ccccc21` (single isomer, unassigned; (-)) [Compound 34b] had a melting point of 168 to 169 °C. Also, the pIC50 – broadly, −log10 of the IC50, conventionally taken in molar units – in data set [1] is 7.62. In the case of `CC(=O)Nc1cccc2c1CCC2CN1CC=C(c2c[nH]c3cc(Cl)ccc23)CC1` (stereo not drawn) [Compound 6c], the melting point was 189 to 190 °C. Also, in data set [1], the pIC50 is 7.92. The corresponding values for `Clc1ccc2c(C3=CCN(CCC4CCc5ccccc54)CC3)c[nH]c2c1` (stereo not drawn) [Compound 8a, 6-Chloro-3-[1-[2-(indan-1-yl)ethyl]-1,2,3,6-tetrahydropyridine-4-yl]-1H-indole] are 181 to 183 °C and 8.46. Taken in the same sequence, the figures for `Fc1ccc2[nH]cc(C3=CCN(CCC4CCc5ccccc54)CC3)c2c1` (stereo not drawn) [Compound 8b, 5-Fluoro-3-[1-[2-(indan-1-yl)ethyl]-1,2,3,6-tetrahydropyridin-4-yl]-1H-indole] were 172 to 176 °C and 8.55. The corresponding values for `Fc1ccc2[nH]cc(C3=CCN(CCCCC4CCc5ccccc54)CC3)c2c1` (stereo not drawn) [Compound 8d, 5-Fluoro-3-[1-[4-(indan-1-yl)butan-1-yl]-1,2,3,6-tetrahydropyridin-4-yl]-1H-indole] are 172 to 176 °C and 7.70. Take `C1=C(c2c[nH]c3ccccc23)CCN(CC2Cc3ccccc3C2)C1` [Compound 11b, 3-[1-(Indan-2-yl)methyl-1,2,3,6-tetrahydropyridin-4-yl]-1H-indole]: the melting point fell in the range of 156 to 157 °C. For the same compound, in data set [1], the pIC50 is 8.52. `Clc1ccc2c(C3=CCN(CC4Cc5ccccc5C4)CC3)c[nH]c2c1Cl` [Compound 11d, 6,7-Dichloro-3-[1-(indan-2-yl)methyl-1,2,3,6-tetrahydropyridin-4-yl]-1H-indole] displayed a melting point of 151 to 152 °C. In addition, the pIC50 in data set [1] is 7.57. Taken in the same sequence, the figures for `C1=C(c2c[nH]c3cc4c(cc23)OCO4)CCN(CC2Cc3ccccc3C2)C1` [Compound 11e, 3-[1-(Indan-2-yl)methyl-1,2,3,6-tetrahydropyridin-4-yl]-5,6-methylenedioxy-1H-indole] were 192 to 193 °C and 7.80. The corresponding values for `Clc1ccc2c(C3=CCN(CCC4Cc5ccccc5C4)CC3)c[nH]c2c1` [Compound 11g, 6-Chloro-3-[1-[2-(indan-2-yl)ethyl]-1,2,3,6-tetrahydropyridin-4-yl]-1H-indole] are 217 to 218 °C and 7.92. Compound `Clc1ccc2c(C3=CCN(CCCC4Cc5ccccc5C4)CC3)c[nH]c2c1` [Compound 11h, 6-Chloro-3-[1-[3-(indan-2-yl)propan-1-yl]-1,2,3,6-tetrahydropyridin-4-yl]-1H-indole] registered a melting point of 176 to 177 °C. Also, the pIC50 in data set [1] was 7.62. The compound `Clc1ccc2c(C3=CCN(CCCCC4Cc5ccccc5C4)CC3)c[nH]c2c1` [Compound 11i, 6-Chloro-3-[1-[4-(indan-2-yl)butan-1-yl]-1,2,3,6-tetrahydropyridin-4-yl]-1H-indole] showed a melting point of 211 to 214 °C. Moreover, the inhibition (in general, the share of the control response that was lost under treatment) at 0.05 µM in data set [1] (at 50 nM, read-out: D4-bind. % inhibition of binding at 50 nM) was found to be 37%. In the case of `c1ccc2c(c1)CC(CN1CCC(c3c[nH]c4ccccc34)CC1)C2` [Compound 21b, 3-[1-(indan-2-ylmethyl)piperidin-4-yl]-1H-indole], the melting point was in the range of 146 to 147 °C. For the same compound, in data set [1], the pIC50 was 8.68. On to `Clc1cccc2c(C3CCN(CC4Cc5ccccc5C4)CC3)c[nH]c12` [Compound 21c, 7-Chloro-3-[1-(indan-2-ylmethyl)piperidin-4-yl]-1H-indole], for which the pIC50 in data set [1] was 8.74. The same measure, in the same setting: next, `c1ccc2c(c1)CC(CCN1CCN(c3cccc4[nH]ccc34)CC1)C2` [Compound 25a, 4-[4-[2-(Indan-2-yl)ethyl]piperazin-1-yl]-1H-indole]: 8.57. Still for that read-out and setting: next, `c1ccc2c(c1)CC(CCN1CCN(c3ccc4[nH]ccc4c3)CC1)C2` [Compound 25b, 5-[4-[2-(Indan-2-yl)ethyl]piperazin-1-yl]-1H-indole]: 8.28; `Clc1ccc2c(ccn2C2=CCN(CCC3Cc4ccccc4C3)CC2)c1` [Compound 28a, 5-Chloro-1-[1-[2-(indan-2-yl)ethyl]-1,2,3,6-tetrahydropyridin-4-yl]-1H-indole]: 6.80.

`C1=C(n2ccc3ccccc32)CCN(CCC2Cc3ccccc3C2)C1` [Compound 28b, 1-[1-[2-(Indan-2-yl)ethyl]-1,2,3,6-tetrahydropyridin-4-yl]-1H-indole]: the pIC50 in data set [1] was 7.85. On the same count and under the same terms, next, `Clc1ccc2c(ccn2C2CCN(CCC3Cc4ccccc4C3)CC2)c1` [Compound 29a, 5-Chloro-1-[1-[2-(indan-2-yl)ethyl]piperidin-4-yl]-1H-indole]: 8.16; `Clc1ccc2c(C3=CCN(CCC4CNc5ccccc54)CC3)c[nH]c2c1` (stereo not drawn) [Compound 30a, 6-Chloro-3-[1-[2-(2,3-dihydro-1H-indol-3-yl)ethyl]-1,2,3,6-tetrahydropyridin-4-yl]-1H-indole]: 8.00.

The values are drawn from US6352988B2, “Indane or dihydroindole derivatives” (H. Lundbeck A/S, priority 1996, dated 2002).
